Experimental data: US10450297B2, “Sulfonyl amide derivatives for the treatment of abnormal cell growth” (Pfizer, Inc., priority 2007, dated 2019)

Biological target: FAK kinase (catalytic construct FAK(410-689)) (Homo sapiens (Human), UniProt Q05397)
Test: FAKcd kinase ELISA (inhibition of poly-glu-tyr phosphorylation by FAK(410-689))
Assay type: biochemical
Conditions: 50 μM final ATP
Method: A. In-Vitro Activity of FAK:
The assay protocol has three parts:
3. […] 4. […] 5. […] 6. […] 7. […] 9. […] 10. […] 12. […] 13. […] 14. Aliquot the FAKcd protein and store frozen at −80° C. II. FAK Activation 1. […] At t120 (t=120 minutes), add 10 μl of 150 mM ATP. […] Add 180 μl aliquots of the desalted material to NiNTA spin column and incubate on spin column 4. […] FAKcd Kinase ELISA 1. Coat 96-well Nunc MaxiSorp plates with poly-glu-tyr (pGT) at […]: Prepare 10 μg/ml of pGT in PBS and aliquot 100 μl/well. Incubate the plates at 37° C. overnight, aspirate the supernatant, wash the plates 3 times with Wash Buffer, and flick to dry before storing at 4° C. 2. Prepare compound stock solutions of 2.5 mM in 100% DMSO. The stocks are subsequently diluted to 60× of the final concentration in 100% DMSO, and diluted 1:5 in Kinase Phosphorylation Buffer. 3. […] Add 80 μl to each well for a final ATP concentration of 50 μM. 4. […] 5. Dilute on ice, FAKcd protein to 1:1000 in Kinase Phosphorylation Buffer. Dispense 30 μl per well. 6. Note: Linearity and the appropriate dilution must be pre-determined for each batch of protein. The enzyme concentration selected should be such that quantitation of the assay signal will be approximately 0.8-1.0 at OD450, and in the linear range of the reaction rate. 7. Prepare both a No ATP control (noise) and a No Compound Control (Signal): 8. (Noise) One blank row of wells receives 10 μl of 1:5 diluted compounds in DMSO, 80 μl of Phosphorylation buffer (minus ATP), and 30 μl FAKcd solution. 9. […] 10. Incubate reaction at room temperature for 15 minutes with gentle shaking on a plate shaker. 11. Terminate the reaction by aspirating off the reaction mixture and washing 3 times with wash buffer. 12. Dilute phospho-tyrosine HRP-conjugated (pY20HRP) antibody to 0.250 μg/ml (1:1000 of Stock) in blocking buffer. Dispense 100 μl per well, and incubate with shaking for 30 minutes at 25°. 13. Aspirate the supernatant and wash the plate 3 times with wash buffer. 14. Add 100 μl per well of room temperature TMB solution to initiate color development. Color development is terminated after approximately 15-30 sec. by the addition of 100 μl of 0.09M H2SO4 per well. 15. The signal is quantitated by measurement of absorbance at 450 nm on the BioRad ricroplate reader or a microplate reader capable of reading at OD450. 16. Inhibition of tyrosine kinase activity would result in a reduced absorbance signal. […] The values are reported as IC50s, μM concentration. FAK Inducible cell-based ELISA: Final Protocol Materials: […]

Sequence of FAK kinase (catalytic construct FAK(410-689)) (Q05397 410-689): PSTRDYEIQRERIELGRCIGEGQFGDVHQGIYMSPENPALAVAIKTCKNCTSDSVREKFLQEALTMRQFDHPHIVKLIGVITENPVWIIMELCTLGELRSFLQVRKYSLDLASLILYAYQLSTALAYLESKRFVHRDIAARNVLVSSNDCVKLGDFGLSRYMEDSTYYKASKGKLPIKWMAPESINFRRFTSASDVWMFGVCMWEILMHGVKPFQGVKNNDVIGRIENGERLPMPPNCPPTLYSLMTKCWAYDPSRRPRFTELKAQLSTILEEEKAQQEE

Row | IC50 [nM] | SMILES
1 | 0.6 | CN(c1ncccc1CNc1nc(Nc2ccc(C(=O)N3CC[C@H](F)C3)cc2)ncc1C(F)(F)F)S(C)(=O)=O (stereo in doubt) [Compound 235, N-[3-({[2-({4-[(3-fluoropyrrolidin-1-yl)carbonyl]phenyl}amino)-5-(trifluoromethyl)pyrimidin-4-yl]amino}methyl)pyridin-2-yl]-N-methylmethane-sulfonamide]
2 | 0.616 | CC(N)c1ccc(Nc2ncc(C(F)(F)F)c(NCc3nccnc3N(C)S(C)(=O)=O)n2)cc1 (stereo in doubt) [Compound 351, N-[3-({[2-({4-[(1R)-1-aminoethyl]phenyl}amino)-5-(trifluoromethyl)pyrimidin-4-yl]amino}methyl)pyrazin-2-yl]-N-methylmethane-sulfonamide]
3 | < 0.595 | CC(N)c1ccc(Nc2ncc(C(F)(F)F)c(NCc3ccccc3N(C)S(C)(=O)=O)n2)cc1 (stereo in doubt) [Compound 362, N-[2-({[2-({4-[(1R)-1-aminoethyl]phenyl}amino)-5-(trifluoromethyl)pyrimidin-4-yl]amino}methyl)phenyl]-N-methylmethanesulfonamide]
4 | 4.09 | CN(c1ncccc1CNc1nc(Nc2ccc(S(N)(=O)=O)cc2)ncc1C(F)(F)F)S(C)(=O)=O [Compound 16, 4-({4-[({2-[methyl(methylsulfonyl)amino]pyridin-3-yl}methyl)amino]-5-(trifluoromethyl)pyrimidin-2-yl}amino)benzenesulfon-amide]
5 | 1.26 | Cc1ccc(CNc2nc(Nc3ccc(S(N)(=O)=O)cc3)ncc2C(F)(F)F)c(N(C)S(C)(=O)=O)n1 [Compound 17, 4-({4-[({6-methyl-2-[methyl(methylsulfonyl)amino]pyridin-3-yl}methyl)amino]-5-(trifluoromethyl)pyrimidin-2-yl}amino)benzene-sulfonamide]
6 | 13.2 | CS(=O)(=O)c1cccc(CNc2nc(Nc3ccc(S(N)(=O)=O)cc3)ncc2C(F)(F)F)c1 [Compound 18, 4-{[4-{[3-(methylsulfonyl)benzyl]amino}-5-(trifluoromethyl)pyrimidin-2-yl]amino}benzene-sulfonamide]
7 | 3.4 | CN(c1ncccc1CNc1nc(Nc2ccc(C(N)=O)cc2)ncc1C(F)(F)F)S(C)(=O)=O [Compound 19, 4-({4-[({2-[methyl(methylsulfonyl)amino]pyridin-3-yl}methyl)amino]-5-(trifluoromethyl)pyrimidin-2-yl}amino)benzamide]
8 | 0.6 | CN(c1ncccc1CNc1nc(Nc2ccc(C(N)=O)cc2)ncc1C(F)(F)F)S(C)(=O)=O [Compound 20, 4-({4-[({2-[methyl(methylsulfonyl)amino]pyridin-3-yl}methyl)amino]-5-(trifluoromethyl)pyrimidin-2-yl}amino)benzamide]
9 | 1 | Cc1ccc(CNc2nc(Nc3ccc(C(N)=O)cc3)ncc2C(F)(F)F)c(N(C)S(C)(=O)=O)n1 [Compound 21, 4-({4-[{{6-methyl-2-[methyl(methylsulfonyl)amino]pyridin-3-yl}methyl)amino]-5-(trifluoromethyl)pyrimidin-2-yl}amino)benzamide]
10 | 68.6 | CN(c1ncccc1CNc1nc(Nc2ccc(S(C)(=O)=O)nc2)ncc1C(F)(F)F)S(C)(=O)=O [Compound 23, N-methyl-N-[3-({[2-{[6-(methylsulfonyl)pyridin-3-yl]amino}-5-(trifluoromethyl)pyrimidin-4-yl]amino}methyl)pyridin-2-yl]methanesulfonamide]
11 | 337 | CS(=O)(=O)c1cccc(CNc2nc(Nc3ccc(S(C)(=O)=O)nc3)ncc2C(F)(F)F)c1 [Compound 24, N-4-[3-(methylsulfonyl)benzyl]-N-2-[6-(rnethylsulfonyl)pyridin-3-yl]-5-(trifluoromethyl)-pyrimidine-2,4-diamine]
12 | 12.9 | Cc1ccc(CNc2nc(Nc3ccc(S(C)(=O)=O)nc3)ncc2C(F)(F)F)c(N(C)S(C)(=O)=O)n1 [Compound 25, N-methyl-N-[6-methyl-3-({[2-{[6-(methylsulfonyl)pyridin-3-yl]amino}-5-(trifluoromethyl)pyrimidin-4-yl]amino}methyl)pyridin-2-yl]methanesulfonamide]
13 | 154 | CN(c1cccc(CNc2nc(Nc3ccc(S(C)(=O)=O)nc3)ncc2C(F)(F)F)c1)S(C)(=O)=O [Compound 26, N-methyl-N-[3-({[2-{[6-(methylsulfonyl)pyridin-3-yl]amino}-5-(trifluoromethyl)pyrimidin-4-yl]amino}methyl)phenyl] methanesulfonamide]
14 | 1.38 | CN(c1ncccc1CNc1nc(Nc2ccc(N3CCCS3(=O)=O)cc2)ncc1C(F)(F)F)S(C)(=O)=O [Compound 27, N-[3-({[2-{[4-(1,1-dioxidoisothiazolidin-2-yl)phenyl]amino}-5-(trifluoromethyl)pyrimidin-4-yl]amino}methyl)pyridin-2-yl]-N-methylmethane-sulfonamide]
15 | 2.01 | Cc1ccc(CNc2nc(Nc3ccc(N4CCCS4(=O)=O)cc3)ncc2C(F)(F)F)c(N(C)S(C)(=O)=O)n1 [Compound 28, N-[3-({[2-{[4-(1,1-dloxidolsothiazolidin-2-yl)phenyl]amino}-5-(trifluoromethyl)pyrimidin-4-yl]amino}methyl)-6-methylpyridin-2-yl]-N-methylmethanesulfonamide]
16 | 2.09 | CS(=O)(=O)c1cccc(CNc2nc(Nc3ccc(N4CCCS4(=O)=O)cc3)ncc2C(F)(F)F)c1 [Compound 29, N~2~-[4-(1,1-dioxidoisothiazolidin-2-yl)phenyl]-N-4~-[3-(methylsulfonyl)benzyl]-5-(trifluoromethyl)pyrimidine-2,4-diamine]
17 | 0.72 | CN(c1ncccc1CNc1nc(Nc2ccc(CNS(C)(=O)=O)cc2)ncc1C(F)(F)F)S(C)(=O)=O [Compound 30, N-methyl-N-{3-[({2-[(4-{[(methylsulfonyl)amino]methyl}phenyl)amino]-5-(trifluoromethyl)pyrimidin-4-yl}amino)methyl]pyridin-2-yl}methanesulfonamide]
18 | 2.22 | CN(c1ncccc1CNc1nc(Nc2cccc(CS(N)(=O)=O)c2)ncc1C(F)(F)F)S(C)(=O)=O [Compound 31, N-[3-({[2-({3-[(aminosulfonyl)methyl]phenyl}amino)-5-(trifluoronnethyl)pyrimidin-4-yl]amino}methyl)pyridin-2-yl]-N-methylmethane-sulfonatnide]
19 | 1.33 | CN(c1ncccc1CNc1nc(Nc2cccc(CNS(C)(=O)=O)c2)ncc1C(F)(F)F)S(C)(=O)=O [Compound 33, N-methyl-N-{3-[({2-[(3-{[(methylsulfonyl)amino]methyl}phenyl)amino]-5-(trifluoromethyl)pyrimidin-4-yl}amino)methyl)pyridin-2-yl}methanesulfonamide]
20 | 15.6 | CN(c1cccc(CNc2nc(Nc3ccc(S(N)(=O)=O)cc3)ncc2Br)c1)S(C)(=O)=O [Compound 34, 4-{[5-bromo-4-({3-[methyl(methylsulfonyl)amino]benzyl}amino)pyrimidin-2-yl)amino}benzenesulfonamide]
21 | 17.6 | CS(=O)(=O)c1cccc(CNc2nc(Nc3ccc(S(N)(=O)=O)cc3)ncc2Br)c1 [Compound 35, 4-[(5-bromo-4-{[3-(methylsulfonyl)benzyl]amino}pyrimidin-2-yl)amino]benzene-sulfonamide]
22 | 188 | CN(c1ncccc1CNc1nc(NC2CCN(S(C)(=O)=O)CC2)ncc1C(F)(F)F)S(C)(=O)=O [Compound 36, N-methyl-N-[3-({[2-{[1-(methylsulfonyl)piperidin-4-yl]amino}-5-(trifluoromethyl)pyrimidin-4-yl]amino}methyl)pyridin-2-yl]methanesulfonamide]
23 | 497 | CN(c1ncccc1CNc1nc(NC2CCC2)ncc1C(F)(F)F)S(C)(=O)=O [Compound 38, N-[3-({[2-(cyclobutylamino)-5-(trifluoromethyl)pyrimidin-4-yl]amino}methyl)pyrldin-2-yl]-N-methylmethane-sulfonamide]
24 | 1000 | CC(=O)N1CC[C@@H](Nc2ncc(C(F)(F)F)c(NCc3cccnc3N(C)S(C)(=O)=O)n2)C1 [Compound 39, N-[3-({[2-{[(3R)-1-acetylpyrrolidin-3-yl]amino}-5-(trifluoromethyl)pyrimidin-4-yl]amino}methyl)pyridin-2-yl]-N-methylmethane-sulfonamide]
